The results in this text go back to patent US20240018120A1, “MAGL INHIBITORS” (H. LUNDBECK A/S, priority 2020, published 2024).

For orientation: IC50 means the concentration needed to halve the response being measured.

In the experiment the target is T1, MAGL (Homo sapiens, UniProt Q99685).
T1 sequence (Q99685 1-303): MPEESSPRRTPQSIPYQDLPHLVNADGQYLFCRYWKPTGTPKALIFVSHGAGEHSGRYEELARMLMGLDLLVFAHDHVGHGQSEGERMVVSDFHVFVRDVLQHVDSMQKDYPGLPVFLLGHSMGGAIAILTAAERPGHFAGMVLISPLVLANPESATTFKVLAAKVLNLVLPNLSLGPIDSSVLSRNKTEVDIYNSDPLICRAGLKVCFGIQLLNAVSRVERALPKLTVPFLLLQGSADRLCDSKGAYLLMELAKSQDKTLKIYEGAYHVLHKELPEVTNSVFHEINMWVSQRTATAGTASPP
Description: In vitro competitive activity-based protein profiling, PC3 human cell membrane proteomes. It counts as biochemical. Also on record: endogenous in cells; host or cells: PC3 human cells (membrane proteome). The conditions noted are these: human PC3 membrane proteome. The method, then: PC3 human cell membrane proteomes (50 μL, 2.0 mg/mL total protein concentration) were preincubated with varying concentrations of inhibitors at 37° C. After 30 min, the ABPP probe JW912-Bodipy (1.0 μL, 50 μM in DMSO) was added and the mixture was incubated for 30 min at room temperature. Reactions were quenched with SDS loading buffer (15 μL-4×) and run on SDS-PAGE. Following gel imaging, serine hydrolase activity was determined by measuring fluorescent intensity of gel bands corresponding to MAGL using ImageJ 1.43u software. Intensities were converted to percent enzyme activity by normalizing to DMSO controls. IC50 values were determined by fitting percent enzyme activities to a non-linear regression, 4-parameter, sigmoidal dose response function in Prism GraphPad.
Turning to `CC1(CNC(=O)C2CC23CCN(C(=O)OC(C(F)(F)F)C(F)(F)F)CC3)CCOCC1` (single isomer, unassigned) [Example 169, 1,1,1,3,3,3-hexafluoropropan-2-yl (R or S)-1-(((4-methyltetrahydro-2H-pyran-4-yl)methyl)carbamoyl)-6-azaspiro[2.5]octane-6-carboxylate], the IC50 stood at 0.21 µM.
The same measure for `Cn1nccc1NC(=O)C1CC12CCN(C(=O)OC(C(F)(F)F)C(F)(F)F)CC2` (single isomer, unassigned) [Example 136, 1,1,1,3,3,3-hexafluoropropan-2-yl (R or S)-1-((1-methyl-1H-pyrazol-5-yl)carbamoyl)-6-azaspiro[2.5]octane-6-carboxylate]: 0.34 µM; for `Cc1ncc(NC(=O)C2CC23CCN(C(=O)OC(C(F)(F)F)C(F)(F)F)CC3)cn1` (single isomer, unassigned) [Example 103, 1,1,1,3,3,3-hexafluoropropan-2-yl (R or S)-1-((2-methylpyrimidin-5-yl)carbamoyl)-6-azaspiro[2.5]octane-6-carboxylate]: 0.0033 µM.
The same measure for `CC(C)Oc1ccc(NC(=O)C2CC23CCN(C(=O)OC(C(F)(F)F)C(F)(F)F)CC3)cn1` (single isomer, unassigned) [Example 165, 1,1,1,3,3,3-hexafluoropropan-2-yl (R or S)-1-((6-isopropoxypyridin-3-yl)carbamoyl)-6-azaspiro[2.5]octane-6-carboxylate]: 0.0014 µM; for `Cc1ccc(NC(=O)C2CC23CCN(C(=O)OC(C(F)(F)F)C(F)(F)F)CC3)cc1` (single isomer, unassigned) [Example 145, 1,1,1,3,3,3-hexafluoropropan-2-yl (R or S)-1-(p-tolylcarbamoyl)-6-azaspiro[2.5]octane-6-carboxylate]: 0.27 µM.
The figure for `CC1(NC(=O)C2CC23CCN(C(=O)OC(C(F)(F)F)C(F)(F)F)CC3)CCOCC1` (single isomer, unassigned) [Example 133, 1,1,1,3,3,3-hexafluoropropan-2-yl (R or S)-1-((4-methyltetrahydro-2H-pyran-4-yl)carbamoyl)-6-azaspiro[2.5]octane-6-carboxylate] is 1.6 µM; for `NC(=O)c1ccc(NC(=O)[C@H]2CC23CCN(C(=O)OC(C(F)(F)F)C(F)(F)F)CC3)cn1` (single isomer, unassigned) [Example 175] it is 0.0014 µM; for `O=C(NCc1cccnn1)C1CC12CCN(C(=O)OC(C(F)(F)F)C(F)(F)F)CC2` (single isomer, unassigned) [Example 156, 1,1,1,3,3,3-hexafluoropropan-2-yl (R or S)-1-((pyridazin-3-ylmethyl)carbamoyl)-6-azaspiro[2.5]octane-6-carboxylate] it is 0.45 µM.
Compound `CC(C)Oc1ccc(NC(=O)C2CC23CCN(C(=O)OC(C(F)(F)F)C(F)(F)F)CC3)cn1` (single isomer, unassigned) [Example 166, 1,1,1,3,3,3-hexafluoropropan-2-yl (R or S)-1-((6-isopropoxypyridin-3-yl)carbamoyl)-6-azaspiro[2.5]octane-6-carboxylate] gave a concentration for half-maximal inhibition (IC50) of 0.13 µM.
The same measure for `CS(=O)(=O)Nc1ccc(NC(=O)C2CC23CCN(C(=O)OC(C(F)(F)F)C(F)(F)F)CC3)cn1` (single isomer, unassigned) [Example 180, 1,1,1,3,3,3-hexafluoropropan-2-yl (R or S)-1-((6-(methylsulfonamido)pyridin-3-yl)carbamoyl)-6-azaspiro[2.5]octane-6-carboxylate]: 0.28 µM.
The figure for `Cc1ccc(NC(=O)[C@@H]2CC23CCN(C(=O)OC(C(F)(F)F)C(F)(F)F)CC3)nn1` (single isomer, unassigned) [Example 105] is 0.1 µM; for `O=C(Nc1ccccc1)[C@H]1CC12CCN(C(=O)OC(C(F)(F)F)C(F)(F)F)CC2` (single isomer, unassigned) [Example 141] it is 0.00091 µM; for `Cc1ccc(NC(=O)C2CC23CCN(C(=O)OC(C(F)(F)F)C(F)(F)F)CC3)cc1` (single isomer, unassigned) [Example 144, 1,1,1,3,3,3-hexafluoropropan-2-yl (R or S)-1-(p-tolylcarbamoyl)-6-azaspiro[2.5]octane-6-carboxylate] it is 0.0052 µM.
The same measure for `O=C(OC(C(F)(F)F)C(F)(F)F)N1CCC2(CC1)CC2C(=O)N1CCOCC1` (single isomer, unassigned) [Example 121, 1,1,1,3,3,3-hexafluoropropan-2-yl (R or S)-1-(morpholine-4-carbonyl)-6-azaspiro[2.5]octane-6-carboxylate]: 0.42 µM; for `O=C(Nc1ccon1)C1CC12CCN(C(=O)OC(C(F)(F)F)C(F)(F)F)CC2` (single isomer, unassigned) [Example 177, 1,1,1,3,3,3-hexafluoropropan-2-yl (R or S)-1-(isoxazol-3-ylcarbamoyl)-6-azaspiro[2.5]octane-6-carboxylate]: 0.29 µM.
`Cc1ccc(NC(=O)[C@H]2CC23CCN(C(=O)OC(C(F)(F)F)C(F)(F)F)CC3)nn1` (single isomer, unassigned) [Example 106] had an IC50 of 0.001 µM.
The figure for `O=C(Nc1ccc(C2CC2)nc1)[C@H]1CC12CCN(C(=O)OC(C(F)(F)F)C(F)(F)F)CC2` (single isomer, unassigned) [Example 163] is 0.001 µM.
In the case of `N#CC1CCN(C(=O)C2CC23CCN(C(=O)OC(C(F)(F)F)C(F)(F)F)CC3)CC1` (single isomer, unassigned) [Example 124, 1,1,1,3,3,3-hexafluoropropan-2-yl (R or S)-1-(4-cyanopiperidine-1-carbonyl)-6-azaspiro[2.5]octane-6-carboxylate], the IC50 amounted to 0.67 µM.
The figure for `O=C(O)COc1ccc(NC(=O)C2CC23CCN(C(=O)OC(C(F)(F)F)C(F)(F)F)CC3)cn1` (single isomer, unassigned) [Example 184, (R or S)-2-((5-(6-(((1,1,1,3,3,3-hexafluoropropan-2-yl)oxy)carbonyl)-6-azaspiro[2.5]octane-1-carboxamido)pyridin-2-yl)oxy)acetic acid] is 1.4 µM.
The same measure for `NC(=O)c1ccc(NC(=O)[C@@H]2CC23CCN(C(=O)OC(C(F)(F)F)C(F)(F)F)CC3)cn1` (single isomer, unassigned) [Example 174]: 0.22 µM.
The figure for `N#CC1CCN(C(=O)C2CC23CCN(C(=O)OC(C(F)(F)F)C(F)(F)F)CC3)CC1` (single isomer, unassigned) [Example 123, 1,1,1,3,3,3-hexafluoropropan-2-yl (R or S)-1-(4-cyanopiperidine-1-carbonyl)-6-azaspiro[2.5]octane-6-carboxylate] is 0.16 µM; for `O=C(Nc1cnoc1)[C@H]1CC12CCN(C(=O)OC(C(F)(F)F)C(F)(F)F)CC2` (single isomer, unassigned) [Example 14] it is 0.013 µM; for `COc1ccc(NC(=O)[C@H]2CC23CCN(C(=O)OC(C(F)(F)F)C(F)(F)F)CC3)cn1` (single isomer, unassigned) [Example 37] it is 0.0011 µM.
For the compound `O=C(NCc1ccccc1)[C@@H]1CC12CCN(C(=O)OC(C(F)(F)F)C(F)(F)F)CC2` (single isomer, unassigned) [Example 151], the IC50 came to 0.031 µM.
The figure for `CNC(=O)c1ccc(NC(=O)C2CC23CCN(C(=O)OC(C(F)(F)F)C(F)(F)F)CC3)cn1` (single isomer, unassigned) [Example 32, 1,1,1,3,3,3-Hexafluoropropan-2-yl (R or S)-1-((6-(methylcarbamoyl)pyridin-3-yl)carbamoyl)-6-azaspiro[2.5]octane-6-carboxylate] is 0.25 µM; for `O=C(Nc1cccc(F)c1)C1CC12CCN(C(=O)OC(C(F)(F)F)C(F)(F)F)CC2` (single isomer, unassigned) [Example 148, 1,1,1,3,3,3-hexafluoropropan-2-yl (R or S)-1-((3-fluorophenyl)carbamoyl)-6-azaspiro[2.5]octane-6-carboxylate] it is 0.091 µM; for `CC(=O)Nc1ccc(NC(=O)C2CC23CCN(C(=O)OC(C(F)(F)F)C(F)(F)F)CC3)cn1` (single isomer, unassigned) [Example 171, 1,1,1,3,3,3-hexafluoropropan-2-yl (R or S)-1-((6-acetamidopyridin-3-yl)carbamoyl)-6-azaspiro[2.5]octane-6-carboxylate] it is 0.0025 µM.
The same measure for `O=C(Nc1ccon1)C1CC12CCN(C(=O)OC(C(F)(F)F)C(F)(F)F)CC2` (single isomer, unassigned) [Example 178, 1,1,1,3,3,3-hexafluoropropan-2-yl (R or S)-1-(isoxazol-3-ylcarbamoyl)-6-azaspiro[2.5]octane-6-carboxylate]: 0.0027 µM; for `O=C(Nc1ccnnc1)C1CC12CCN(C(=O)OC(C(F)(F)F)C(F)(F)F)CC2` (single isomer, unassigned) [Example 109, 1,1,1,3,3,3-hexafluoropropan-2-yl (R or S)-1-(pyridazin-4-ylcarbamoyl)-6-azaspiro[2.5]octane-6-carboxylate]: 0.57 µM.
